What is called EC50 is the concentration giving half of the maximal effect.

Molecules are shown by their SMILES.

Consider 35 compounds from patent US9820972B2, “Antiviral compounds highly effective as HCV-NS5A inhibitor” (priority 2013, dated 2017).

One assay has as its system GT-1a of NS5A Replicon. Description: HCV double reporter gene (Renilla luciferase) replicon assay, GT-1a. The class given is cell-based, Hepatitis C virus (HCV). To be noted: GT-1a replicon; class symbols; read-out: EC50 For GT-1a of NS5A Replicon. The procedure: Antiviral Assay for Inhibition Activity (EC50):
The study is completed by a new constructed double reporter genes replicon assay system, the capacity of viral replicon in infected cell is determined by detecting the reporter gene Renilla luciferase. The relationship of reporter genes, HCV RNA replicon and viral proteins is well linear. 8 gradient concentrations for 2-fold dilution, 3 wells, 3 times repetition and 1 or 2 control drugs are set to finally determine EC50 of compound.
THF was distilled from sodium metal and benzophenone. DCM, pentane and hexane were distilled form calcium hydride. Special raw material and intermediate in the invention were ordered by contract synthesis from Zannan SciTech Co., Let in China, others reagents were purchased from Shanghai reagent company, Aldrich, Acros etc. As intermediates or products during the synthesis is not required for the reaction and other tests the next step, the synthesis is repeated until a sufficient number of times. The invention of the prepared compounds of […] (HCV NS5A) inhibitory activity test was performed by CRO service units such as WuXi AppTec etc.
On the technique in general: In a reporter assay the amount or activity of a reporter protein is the signal.
For `CNC(=O)NC(C(=O)N1CC=C[C@H]1c1nc(-c2ccc(-c3ccc(-c4c[nH]c(C5CCCN5C(=O)[C@@H](NC(=O)NC)C(C)C)n4)cc3)cc2)c[nH]1)C(C)C` (stereo partly drawn) [Compound 6ch], the EC50 lay in the range of 1 to 999 pM.
Still for that read-out and setting: the figure for `COC(=O)NC(C(=O)N1CC=C[C@H]1c1ncc(-c2ccc(-c3ccc(-c4cnc([C@@H]5CCCN5C(=O)[C@@H](NC(=O)OC)C(C)C)[nH]4)cc3)cc2)[nH]1)C1CCCCC1` (stereo partly drawn) [Compound 6di] is 1 to 999 pM.

Still in this assay, the particulars now being: Hepatitis C virus, GT1A, GT-1a replicon; class symbols; read-out: EC50 For GT-1a of NS5A Replicon.
Consider `COC(=O)N[C@H](C(=O)N1CCC[C@H]1c1nc(-c2ccc(-c3ccc(-c4cnc([C@@H]5C[C@@H](OC(=O)N6Cc7cccc(F)c7C6)CN5C(=O)[C@@H](NC(=O)OC(C)(C)C)C(C)C)[nH]4)cc3)cc2)c[nH]1)C(C)C` [Compound 6u], for which the 50% effective concentration (EC50) was in the range of 1000 to 49900 pM.
Same read-out and setting: the figure for `COC(=O)N[C@H](C(=O)N1CC(OC(=O)N2Cc3cc4c(cc3C2)OCO4)CC1c1nc(-c2ccc3c(ccc4cc(-c5c[nH]c([C@@H]6CCCN6C(=O)[C@@H](NC(=O)OC)C(C)C)n5)ccc43)c2)c[nH]1)C(C)C` (stereo partly drawn) [Compound 6bt] is 1 to 999 pM; for `CN(C)C(=O)N[C@@H](C(=O)N1CC=CC1c1nc(-c2ccc(-c3ccc(-c4c[nH]c(C5CCCN5C(=O)[C@H](NC(=O)N(C)C)c5ccccc5)n4)cc3)cc2)c[nH]1)c1ccccc1` (stereo partly drawn) [Compound 6ce] it is 1 to 999 pM.
Same read-out and setting: the figure for `COC(=O)N[C@H](C(=O)N1CC=CC1c1ncc(-c2ccc(-c3csc4c(-c5c[nH]c([C@@H]6CCCN6C(=O)[C@@H](NC(=O)OC)C(C)C)n5)csc34)cc2)[nH]1)C(C)C` (stereo partly drawn) [Compound 6fq] is 1 to 999 pM; for `COC(=O)N[C@H](C(=O)N1CCCC1c1ncc(-c2ccc3c(c2)cc2n3C(c3ccccc3)Oc3cc(-c4cnc([C@@H]5C=CCN5C(=O)[C@@H](NC(=O)OC)C(C)C)[nH]4)ccc3-2)[nH]1)C(C)C` (stereo partly drawn) [Compound 6cd] it is greater than 50000 pM.
For the compound `CC(C)(C)OC(=O)N[C@H](C(=O)N1CCC[C@H]1c1nc(-c2ccc(-c3ccc(-c4cnc([C@@H]5C[C@@H](OC(=O)N6Cc7ccc8c(c7C6)OCO8)CN5C(=O)[C@@H](NC(=O)OC(C)(C)C)C(C)(C)C)[nH]4)cc3)cc2)c[nH]1)C(C)(C)C` [Compound 6c], the half-maximal effective concentration (EC50) is greater than 50000 pM.
On the same count and under the same terms, the figure for `COC(=O)N[C@@H](C(=O)N1CC=C[C@H]1c1nc(-c2ccc(-c3ccc(-c4cnc([C@@H]5CC6(CN5C(=O)[C@H](NC(=O)OC)c5ccccc5)OCCO6)[nH]4)cc3)cc2)c[nH]1)c1ccccc1` [Compound 6dv] is 1 to 999 pM; for `COC(=O)N[C@H](C(=O)N1CC=C[C@H]1c1ncc(-c2cc3sc(-c4ccc(-c5cnc([C@@H]6CCCN6C(=O)[C@@H](NC(=O)OC)C(C)C)[nH]5)cc4)cc3s2)[nH]1)C(C)C` [Compound 6fn] it is 1 to 999 pM.
Consider `COC(=O)N[C@H](C(=O)N1CCCC1c1nc(-c2ccc(-c3ccc(-c4c[nH]c([C@@H]5CCCN5C(=O)C5(NC(=O)OC)CCCC5)n4)cc3)cc2)c[nH]1)C(C)C` (stereo partly drawn) [Compound 6z], for which the EC50 is 1 to 999 pM.
Take `COC(=O)N[C@@H](C(=O)N1CC=C[C@H]1c1ncc(-c2ccc(-c3ccc(-c4c[nH]c([C@@H]5CCCN5C(=O)[C@H](NC(=O)OC)c5ccccc5)n4)cc3)cc2)[nH]1)c1ccccc1` [Compound 6dz]: the EC50 is 1 to 999 pM.
Still for that read-out and setting: the figure for `COC(=O)N[C@H](C(=O)N1CN(C(=O)N2Cc3cc4c(cc3C2)OCO4)CC1c1nc(-c2ccc(-c3ccc(-c4c[nH]c([C@@H]5CC6(CC6)CN5C(=O)[C@@H](NC(=O)OC)C(C)C)n4)cc3)cc2)c[nH]1)C(C)C` (stereo partly drawn) [Compound 6am] is 1 to 999 pM; for `COC(=O)N[C@H](C(=O)N1CN(C(=O)N2Cc3cccc(Cl)c3C2)CC1c1nc(-c2ccc(-c3ccc(-c4c[nH]c([C@@H]5CCCN5C(=O)[C@@H](NC(=O)OC)C(C)C)n4)cc3)cc2)c[nH]1)C(C)C` (stereo partly drawn) [Compound 6at] it is 1 to 999 pM.
As to `COC(=O)N[C@@H](C(=O)N1CC=CC1c1nc(-c2ccc(-c3ccc(-c4c[nH]c(C5C=CCN5C(=O)[C@H](NC(=O)OC)c5ccccc5)n4)cc3)cc2)c[nH]1)c1ccccc1` (stereo partly drawn) [Compound 6ca], the EC50 is 1 to 999 pM.
The same measure, in the same setting: the figure for `COC(=O)N[C@H](C(=O)N1CC(OC(=O)N2Cc3cc4c(cc3C2)OCO4)CC1c1nc(-c2ccc3c(c2)C(F)(F)c2cc(-c4c[nH]c([C@@H]5CCCN5C(=O)[C@@H](NC(=O)OC)C(C)C)n4)ccc2-3)c[nH]1)C(C)C` (stereo partly drawn) [Compound 6bp] is 1 to 999 pM.
Turning to `COC(=O)NC(C(=O)N1CC=C[C@H]1c1ncc(-c2ccc(-c3ccc(-c4cnc([C@@H]5CCCN5C(=O)[C@@H](NC(=O)OC)C(C)C)[nH]4)cc3)cc2)[nH]1)C1CCCC1` (stereo partly drawn) [Compound 6dh], the EC50 is 1 to 999 pM.
Take `CC(C)[C@H](NC(=O)OC1CCCC1)C(=O)N1CC=CC1c1ncc(-c2ccc(-c3ccc(-c4c[nH]c([C@@H]5C=CCN5C(=O)[C@@H](NC(=O)OC5CCCC5)C(C)C)n4)cc3)cc2)[nH]1` (stereo partly drawn) [Compound 6bf]: the concentration giving a half-maximal response (EC50) is greater than 50000 pM.
`COC(=O)N[C@H](C(=O)N1CN(C(=O)N2Cc3ccc(OC)cc3C2)CC1c1nc(-c2ccc(-c3ccc(-c4c[nH]c([C@@H]5CCCN5C(=O)[C@@H](NC(=O)OC)C(C)C)n4)cc3)cc2)c[nH]1)C(C)C` (stereo partly drawn) [Compound 6av]: the EC50 was in the range of 1 to 999 pM.
On the same count and under the same terms, the figure for `COC(=O)N[C@H](C(=O)N1CC=CC1c1nc(-c2ccc(-c3ccc(-c4c[nH]c([C@@H]5CCCN5C(=O)C5(NC(=O)OC)CC5)n4)cc3)cc2)c[nH]1)C(C)C` (stereo partly drawn) [Compound 6bh] is 1 to 999 pM; for `COC(=O)N[C@H](C(=O)N1CC(OC(=O)N2Cc3cc4c(cc3C2)OCO4)CC1c1nc(-c2ccc3c(c2)oc2cc(-c4c[nH]c([C@@H]5CCCN5C(=O)[C@@H](NC(=O)OC)C(C)C)n4)ccc23)c[nH]1)C(C)C` (stereo partly drawn) [Compound 6bn] it is 1 to 999 pM.
On the same count and under the same terms, the figure for `COC(=O)N[C@H](C(=O)N1C[C@H](OC(=O)N2Cc3ccc4c(c3C2)OCO4)CC1c1ncc(-c2ccc(-c3ccc(-c4c[nH]c([C@@H]5CCCN5C(=O)[C@@H](NC(=O)OC)C(C)C)n4)cc3)cc2)[nH]1)C(C)C` (stereo partly drawn) [Compound 6a] is 1 to 999 pM.
The same measure, in the same setting: in the case of `COC(=O)N[C@H](C(=O)N1CC2(C[C@H]1c1ncc(-c3ccc(-c4ccc(-c5c[nH]c([C@@H]6C=CCN6C(=O)[C@H](NC(=O)OC)c6ccccc6)n5)cc4)cc3)[nH]1)OCCO2)C(C)C` [Compound 6dw] it was 1 to 999 pM.
Regarding `COC(=O)N[C@H](C(=O)N1CCCC1c1nc(-c2ccc(-c3ccc(-c4c[nH]c([C@@H]5COCCN5C(=O)[C@@H](NC(=O)OC)C(C)C)n4)cc3)cc2)c[nH]1)C(C)C` (stereo partly drawn) [Compound 6ag], the EC50 is 1 to 999 pM.
As to `CC(C)[C@H](NC(=O)OC1CCCC1)C(=O)N1CCC[C@H]1c1nc(-c2ccc(-c3ccc(-c4cnc([C@@H]5C[C@@H](OC(=O)N6Cc7ccc8c(c7C6)OCO8)CN5C(=O)[C@@H](NC(=O)OC5CCCC5)C(C)C)[nH]4)cc3)cc2)c[nH]1` [Compound 6h], the EC50 is greater than 50000 pM.
The same measure, in the same setting: the figure for `COC(=O)N[C@H](C(=O)N1CCCC1c1nc(-c2ccc(-c3ccc(-c4c[nH]c([C@@H]5C=CCN5C(=O)C(NC(=O)N(C)C)C(C)C)n4)cc3)cc2)c[nH]1)C(C)C` (stereo partly drawn) [Compound 6ci] is 1 to 999 pM; for `COC(=O)N[C@H](C(=O)N1CC(OC(=O)N2Cc3cc4c(cc3C2)OCO4)CC1c1nc(-c2ccc3c(c2)Cc2cc(-c4c[nH]c([C@@H]5CCCN5C(=O)[C@@H](NC(=O)OC)C(C)C)n4)ccc2-3)c[nH]1)C(C)C` (stereo partly drawn) [Compound 6az] it is 1 to 999 pM.
The same measure, in the same setting: the figure for `COC(=O)N[C@H](C(=O)N1CC=C[C@H]1c1nc(-c2ccc(-c3ccc(-c4cnc([C@@H]5CC6(CN5C(=O)[C@@H](NC(=O)OC)C(C)C)OCCO6)[nH]4)cc3)cc2)c[nH]1)C(C)C` [Compound 6dt] is 1 to 999 pM; for `COC(=O)N[C@H](C(=O)N1CN(C(=O)N2Cc3cccc(F)c3C2)CC1c1nc(-c2ccc(-c3ccc(-c4c[nH]c([C@@H]5CCCN5C(=O)[C@@H](NC(=O)OC)C(C)C)n4)cc3)cc2)c[nH]1)C(C)C` (stereo partly drawn) [Compound 6ar] it is 1 to 999 pM.
On to `COC(=O)N[C@H](C(=O)N1CC=C[C@H]1c1ncc(-c2ccc(-c3ccc(-c4cnc([C@@H]5CNCN5C(=O)[C@@H](NC(=O)OC)C(C)C)[nH]4)cc3)cc2)[nH]1)C(C)C` [Compound 6cv], for which the EC50 was in the range of 1 to 999 pM.
The same measure, in the same setting: in the case of `COC(=O)N[C@H](C(=O)N1CCCCC1c1nc(-c2ccc(-c3ccc(-c4c[nH]c([C@@H]5COCCN5C(=O)[C@@H](NC(=O)OC)C(C)C)n4)cc3)cc2)c[nH]1)C(C)C` (stereo partly drawn) [Compound 6aj] it was 1 to 999 pM.
For the compound `COC(=O)N[C@@H](C(=O)N1CC=CC1c1ncc(-c2ccc(-c3csc4c(-c5c[nH]c([C@@H]6CCCN6C(=O)[C@H](NC(=O)OC)c6ccccc6)n5)csc34)cc2)[nH]1)c1ccccc1` (stereo partly drawn) [Compound 6fs], the EC50 lay in the range of 1 to 999 pM.
For `COC(=O)N[C@H](C(=O)N1CC=C[C@H]1c1ncc(-c2ccc(-c3ccc(-c4cnc([C@@H]5CN(C(=O)OC)CN5C(=O)[C@@H](NC(=O)OC)C(C)C)[nH]4)cc3)cc2)[nH]1)C(C)C` [Compound 6db], the EC50 lay within 1 to 999 pM.

The same assay, now with this note: Hepatitis C virus, GT1A, read-out: EC50 For GT-1a of NS5A Replicon.
Consider `CC(C)[C@H](NC(=O)OC(C)(C)C)C(=O)N1C[C@H](OC(=O)N2Cc3cc4c(cc3C2)OCO4)C[C@H]1c1nc(-c2ccc(-c3ccc(-c4cnc([C@@H]5C[C@@H](OC(=O)N6Cc7cc8c(cc7C6)OCO8)CN5C(=O)[C@@H](NC(=O)OC(C)(C)C)C(C)C)[nH]4)cc3)cc2)c[nH]1` [Compound 6p], for which the 50% effective concentration (EC50) was greater than 50000 pM.
The same measure, in the same setting: the figure for `COC(=O)N[C@H](C(=O)N1CC2(CC2)C[C@H]1c1nc(-c2ccc3c(c2)C(F)(F)c2cc(-c4ccc5[nH]c([C@@H]6[C@H]7CC[C@H](C7)N6C(=O)[C@@H](NC(=O)OC)C(C)C)nc5c4)ccc2-3)c[nH]1)C(C)C` [Ref-2, reference compound] is 1 to 999 pM.

The assay is the same for the next values; noted with them: Hepatitis C virus, genotype 1a / genotype 6a, read-out: EC50 for Replicon (pM) of GT-1a to GT-6a: 1a.
`COC(=O)N[C@H](C(=O)N1CC2(CC2)C[C@H]1c1nc(-c2ccc3c(c2)C(F)(F)c2cc(-c4ccc5[nH]c([C@@H]6[C@H]7CC[C@H](C7)N6C(=O)[C@@H](NC(=O)OC)C(C)C)nc5c4)ccc2-3)c[nH]1)C(C)C` [Ref-2, reference compound]: the EC50 came to 88 pM.
